Assay results: ChEMBL document CHEMBL5260814, “Design strategies in the prodrugs of HIV-1 protease inhibitors to improve the pharmaceutical properties” (Eur J Med Chem, 2017)
≈ marks a conversion by molar mass, not a printed value.

How the values were obtained:
[1] = Equilibrium solubility of compound; type: physicochemical
CEM-SS = test: Cytotoxicity against human CEM-SS cells assessed as inhibition of cell growth; type: functional
[2] = AUC in rat at 5 mg/kg, po; type: ADME, organism-based; set-up: dose 5 mg/kg, route po; conditions: in vivo
[3] = Oral bioavailability in rat at 3 mg/kg; type: ADME, organism-based; conditions: in vivo
[4] = Solubility of compound at pH at 1 to 8; type: physicochemical
[5] = Metabolic stability in rat plasma assessed as half life at 0.2 mg/kg, po; type: ADME
[6] = Metabolic stability in rat liver microsome assessed as half life […]; type: ADME; conditions: liver microsomes
P-glycoprotein = test: Efflux ratio of apparent permeability across basal to apical membrane over apical to basal membrane in human Caco-2 cells in absence of P-glycoprotein; type: ADME, cell-based
[7] = Efflux ratio of apparent permeability across apical to basolateral to basolateral to apical side in MDCK1 cells; type: ADME, cell-based
[8] = Half life in calf; type: ADME, Bos taurus; conditions: cattle
[9] = Aqueous solubility of compound; type: physicochemical; conditions: buffer
[10] = Solubility of compound at pH at 3; type: physicochemical; conditions: pH 3
[11] = Solubility of compound at pH at 7; type: physicochemical; conditions: pH 7
[12] = Solubility of compound at pH at 3 to 4; type: physicochemical
[13] = Chemical stability of compound in PBS buffer at pH 7.4 assessed as half life measured for 24 hrs; type: physicochemical
[14] = Metabolic stability in rat liver microsome assessed as compound remaining measured after 2 hrs; type: ADME; conditions: microsomes
[15] = Chemical stability of compound in PBS buffer at pH 4 assessed as half life measured for 24 hrs; type: physicochemical
[16] = Prodrug conversion in human serum at 50 uM using glycylprolyl-para-nitroanilide as substrate measured for 1 hr relative to control; type: ADME, cell-free
[17] = Prodrug conversion in human serum at 50 uM using glycylprolyl-para-nitroanilide as substrate measured for 4 hrs relative to control; type: ADME, cell-free
[18] = Stability of compound assessed as half life at pH 2; type: physicochemical; conditions: buffer
[19] = Stability of compound in PBS buffer at pH 7.4 assessed as half life; type: physicochemical
[20] = Metabolic stability in rat liver microsome assessed as compound remaining measured after 4 hrs; type: ADME; conditions: microsomes
[21] = target: Human immunodeficiency virus type 1 protease (Human immunodeficiency virus 1, UniProt Q72874); test: Inhibition of HIV-1 protease by FRET-based assay
[22] = Stability of compound in PBS buffer at pH 7.3 assessed as half life; type: physicochemical
[23] = Drug uptake in dog MDCK-MDR1 cells; type: ADME, cell-based, Canis lupus familiaris
[24] = Stability of compound in DPBS buffer at pH 7.4 assessed as half life measured for 48 hrs; type: physicochemical
[25] = Stability of compound in human Caco-2 cells assessed as half life measured for 48 hrs; type: ADME, cell-based
[26] = Efflux ratio of apparent permeability across basal to apical membrane over apical to basal membrane in human Caco-2 cells; type: ADME, cell-based

## CC(C)CN(C[C@@H](O)[C@H](Cc1ccccc1)NC(=O)O[C@H]1CCOC1)S(=O)(=O)c1ccc(N)cc1
[1]
  solubility thermodynamic: 160 µM (≈ 80.9 µg/mL)

## CCCCCCCC/C=C\CCCCCCCC(=O)OCC(COC(=O)CCCCCCC/C=C\CCCCCCCC)OC(=O)CCC(=O)O[C@H](CN1C[C@H]2CCCC[C@H]2C[C@H]1C(=O)NC(C)(C)C)[C@H](Cc1ccccc1)NC(=O)[C@H](CC(N)=O)NC(=O)c1ccc2ccccc2n1
CEM-SS
  CC50: > 100 µM

## CCCC(O[C@@H](C[C@H](Cc1ccccc1)NC(=O)[C@@H](NC(=O)N(C)Cc1csc(C(C)C)n1)C(C)C)[C@H](Cc1ccccc1)NC(=O)OCc1cncs1)OP(=O)([O-])[O-].[Na+].[Na+] (some centres not stated)
[2]
  AUC: 450 ng·h/mL

## CC(C)[C@H](N)C(=O)O[C@@H]1Cc2ccccc2[C@@H]1NC(=O)[C@H](Cc1ccccc1)C[C@H](O)CN1CCN(Cc2cccnc2)C[C@H]1C(=O)NC(C)(C)C
[3]
  bioavailability: 32%

## CC(C)CN(C[C@@H](OP(=O)([O-])[O-])[C@H](Cc1ccccc1)NC(=O)O[C@H]1CCOC1)S(=O)(=O)c1ccc(N)cc1.[Na+].[Na+] [FOSAMPRENAVIR SODIUM]
[4]
  solubility: > 3000 µg/mL

## CC(C)[C@H](N)C(=O)N[C@H](C(=O)O[C@H](CN1C[C@H]2CCCC[C@H]2C[C@H]1C(=O)NC(C)(C)C)[C@H](Cc1ccccc1)NC(=O)[C@H](CC(N)=O)NC(=O)c1ccc2ccccc2n1)C(C)C
[5]
  half-life: 7.8 h
[6]
  half-life: 1.48 h
P-glycoprotein
  efflux ratio: 1.2
[7]
  Ratio: 2.1

## CC(C)c1nc(CN(C)C(=O)N[C@H](C(=O)N[C@@H](Cc2ccccc2)C[C@H](OCOP(=O)([O-])[O-])[C@H](Cc2ccccc2)NC(=O)OCc2cncs2)C(C)C)cs1.[Na+].[Na+]
[8]
  half-life: 0.117 h
[9]
  solubility: > 5000 µg/mL
[2]
  AUC: 460 ng·h/mL

## CC(C)[C@H](NC(=O)[C@H](N)C(C)C)C(=O)O[C@H](CN1C[C@H]2CCCC[C@H]2C[C@H]1C(=O)NC(C)(C)C)[C@H](Cc1ccccc1)NC(=O)[C@H](CC(N)=O)NC(=O)c1ccc2ccccc2n1
[6]
  half-life: 3.73 h
P-glycoprotein
  efflux ratio: 1.2

## CC(C)CN(C[C@@H](OP(=O)([O-])[O-])[C@H](Cc1ccccc1)NC(=O)O[C@H]1CCOC1)S(=O)(=O)c1ccc(N)cc1.[Ca+2] [FOSAMPRENAVIR CALCIUM]
[1]
  solubility thermodynamic: 400 µM
[10]
  solubility: 54000 µg/mL
[11]
  solubility: 300 µg/mL
[12]
  solubility: 54000 µg/mL

## CCCCCCCCCCCCCCCC(=O)OCC(COC(=O)CCCCCCCCCCCCCCC)OC(=O)CCC(=O)O[C@H](CN1C[C@H]2CCCC[C@H]2C[C@H]1C(=O)NC(C)(C)C)[C@H](Cc1ccccc1)NC(=O)[C@H](CC(N)=O)NC(=O)c1ccc2ccccc2n1
CEM-SS
  CC50: > 100 µM

## Cc1cccc(C)c1OCC(=O)N[C@@H](Cc1ccccc1)[C@@H](O)C[C@H](Cc1ccccc1)NC(=O)[C@H](C(C)C)N1CCCNC1=O [LOPINAVIR]
[13]
  half-life: 5.4 h
[14]
  Stability: 5%
[9]
  solubility: 7 µg/mL (≈ 11.1 µM)
[15]
  half-life: 101 h

## CC(C)CN(C[C@@H](O)[C@H](Cc1ccccc1)NC(=O)O[C@H]1CO[C@H]2OCC[C@H]21)S(=O)(=O)c1ccc(CNC(=O)[C@@H]2CCCN2C(=O)[C@@H](N)C(C)C)cc1
[16]
  Drug metabolism: 2%
[17]
  Drug metabolism: 2%

## Cc1cccc(C)c1OCC(=O)N[C@@H](Cc1ccccc1)[C@H](C[C@H](Cc1ccccc1)NC(=O)[C@H](C(C)C)N1CCCNC1=O)OC(C)OP(=O)([O-])[O-].[Na+].[Na+] (some centres not stated)
[9]
  solubility: > 5000 µg/mL
[18]
  half-life: < 0.25 h
[2]
  AUC: 9530 ng·h/mL

## CC(C)[C@@H](N)C(=O)O[C@H](CN1C[C@H]2CCCC[C@H]2C[C@H]1C(=O)NC(C)(C)C)[C@H](Cc1ccccc1)NC(=O)[C@H](CC(N)=O)NC(=O)c1ccc2ccccc2n1
[6]
  half-life: 0.933 h
P-glycoprotein
  efflux ratio: 1.2

## Cc1cccc(C)c1OCC(=O)N[C@@H](Cc1ccccc1)[C@H](O)C(=O)N1CSC(C)(C)[C@H]1C(=O)NC(C)(C)C
[19]
  half-life: 4 min

## Cc1cccc(C)c1OCC(=O)N[C@@H](Cc1ccccc1)[C@H](C[C@H](Cc1ccccc1)NC(=O)[C@H](C(C)C)N1CCCNC1=O)OC(=O)[C@@H](NC(=O)[C@@H](N)C(C)C)C(C)C
[14]
  Stability: 10%
[20]
  Stability: 46%

## COc1ccc(S(=O)(=O)N(CC(C)C)C[C@@H](O)[C@H](Cc2ccccc2)NC(=O)CCC(=O)O)cc1
[21]
  IC50: 0.0118 µM

## CC(C)[C@H](N)C(=O)N[C@@H](C(=O)O[C@H](CN1C[C@H]2CCCC[C@H]2C[C@H]1C(=O)NC(C)(C)C)[C@H](Cc1ccccc1)NC(=O)[C@H](CC(N)=O)NC(=O)c1ccc2ccccc2n1)C(C)C
[6]
  half-life: 2.97 h
P-glycoprotein
  efflux ratio: 1.2

## CC(O[C@@H](C[C@H](Cc1ccccc1)NC(=O)[C@@H](NC(=O)N(C)Cc1csc(C(C)C)n1)C(C)C)[C@H](Cc1ccccc1)NC(=O)OCc1cncs1)OP(=O)([O-])[O-].[Na+].[Na+] (some centres not stated)
[9]
  solubility: > 5000 µg/mL
[18]
  half-life: < 0.25 h
[2]
  AUC: 630 ng·h/mL

## CC(C)[C@H](NC(=O)CN)C(=O)O[C@H](CN1C[C@H]2CCCC[C@H]2C[C@H]1C(=O)NC(C)(C)C)[C@H](Cc1ccccc1)NC(=O)[C@H](CC(N)=O)NC(=O)c1ccc2ccccc2n1
[7]
  Ratio: 2.1

## Cc1cccc(C)c1OCC(=O)N[C@@H](Cc1ccccc1)[C@H](C[C@H](Cc1ccccc1)NC(=O)[C@H](C(C)C)N1CCCNC1=O)OC(=O)[C@@H](NC(=O)CN)C(C)C
[14]
  Stability: 26%
[20]
  Stability: 46%

## CC(C)(C)NC(=O)[C@@H]1CN(Cc2cccnc2)CCN1C[C@H](C[C@@H](Cc1ccccc1)C(=O)N[C@H]1c2ccccc2C[C@H]1OC(=O)CCCCO[C@H]1O[C@H](CO)[C@@H](O)[C@H](O)[C@@H]1O)OC(=O)CCCCO[C@H]1O[C@H](CO)[C@@H](O)[C@H](O)[C@@H]1O
[22]
  half-life: 50 h

## CC(C)CN(C[C@@H](OP(=O)(O)O)[C@H](Cc1ccccc1)NC(=O)O[C@H]1CCOC1)S(=O)(=O)c1ccc(N)cc1 [FOSAMPRENAVIR]
[4]
  solubility: > 3000 µg/mL

## CC(C)(C)NC(=O)[C@@H]1C[C@@H]2CCCC[C@@H]2CN1C[C@@H](OC(=O)CCCC[C@@H]1SC[C@@H]2NC(=O)N[C@@H]21)[C@H](Cc1ccccc1)NC(=O)[C@H](CC(N)=O)NC(=O)c1ccc2ccccc2n1
[23]
  Drug uptake: 72%

## CC(C)(C)NC(=O)[C@@H]1C[C@@H]2CCCC[C@@H]2CN1C[C@@H](OC(=O)CCC(=O)OCC(O)C1OC(=O)C(O)=C1O)[C@H](Cc1ccccc1)NC(=O)[C@H](CC(N)=O)NC(=O)c1ccc2ccccc2n1 (some centres not stated)
[24]
  half-life: 9.65 h
[25]
  half-life: 5.73 h

## Cc1cccc(C)c1OCC(=O)N[C@@H](Cc1ccccc1)[C@H](C[C@H](Cc1ccccc1)NC(=O)[C@H](C(C)C)N1CCCNC1=O)OCOP(=O)([O-])[O-].[Na+].[Na+]
[9]
  solubility: > 5000 µg/mL
[2]
  AUC: 19650 ng·h/mL

## CC(C)(C)NC(=O)[C@@H]1CN(Cc2cccnc2)CCN1C[C@@H](O)C[C@@H](Cc1ccccc1)C(=O)N[C@H]1c2ccccc2C[C@H]1O.O
[3]
  bioavailability: 76%

## CC(C)(C)NC(=O)[C@@H]1CN(Cc2cccnc2)CCN1C[C@@H](O)C[C@@H](Cc1ccccc1)C(=O)N[C@H]1c2ccccc2C[C@H]1OC(=O)CCCCO[C@H]1O[C@H](CO)[C@@H](O)[C@H](O)[C@@H]1O
[22]
  half-life: 50 h

## CC(C)[C@H](N)C(=O)O[C@H](CN1C[C@H]2CCCC[C@H]2C[C@H]1C(=O)NC(C)(C)C)[C@H](Cc1ccccc1)NC(=O)[C@H](CC(N)=O)NC(=O)c1ccc2ccccc2n1
[6]
  half-life: 0.783 h
P-glycoprotein
  efflux ratio: 1.2

## CCCCCCCCCCCCCCCC(=O)OCC(COC(=O)CCCCCCCCCCCCCCC)OC(=O)CCC(=O)O[C@@H](C[C@@H](Cc1ccccc1)C(=O)N[C@H]1c2ccccc2C[C@H]1O)CN1CCN(Cc2cccnc2)C[C@H]1C(=O)NC(C)(C)C
CEM-SS
  CC50: > 100 µM

## CC(C)c1nc(CN(C)C(=O)N[C@H](C(=O)N[C@@H](Cc2ccccc2)C[C@H](OC(OP(=O)([O-])[O-])C(C)C)[C@H](Cc2ccccc2)NC(=O)OCc2cncs2)C(C)C)cs1.[Na+].[Na+] (some centres not stated)
[8]
  half-life: > 0.5 h

## COC(=O)N[C@H](C(=O)N[C@@H](Cc1ccccc1)[C@@H](O)CN(Cc1ccc(-c2ccccn2)cc1)NC(=O)[C@@H](NC(=O)OC)C(C)(C)C)C(C)(C)C [ATAZANAVIR]
[26]
  efflux ratio: 12

## CCCCCCCC/C=C\CCCCCCCC(=O)OCC(COC(=O)CCCCCCC/C=C\CCCCCCCC)OC(=O)CCC(=O)O[C@@H](C[C@@H](Cc1ccccc1)C(=O)N[C@H]1c2ccccc2C[C@H]1O)CN1CCN(Cc2cccnc2)C[C@H]1C(=O)NC(C)(C)C
CEM-SS
  CC50: > 100 µM
